Test results as given in patent US11840528B2 (Hoffmann-La Roche Inc., priority 2018, dated 2023).

Assays:
h-GABA-A α5β3γ2 [1] = target: T1, h-GABA-A α5β3γ2 (Homo sapiens, UniProt P18507+P31644); test: [3H]flumazenil competition binding assay, membranes of HEK293 cells expressing GABAA receptors; conditions: displacement of [3H]-Flumazenil 0.5 nM, HEK293 cells expressing human receptors, mean of two determinations; Table 1
Summary of the method: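 Receptor source: human α5β3γ2 transiently transfected into HEK293 cells, membranes in pH 7.5 Krebs-tris. Filtration through GF/C, then scintillation counting.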

h-GABA-A α5β3γ2 [2] = target: T1, h-GABA-A α5β3γ2; test: Two-electrode voltage clamp electrophysiology in Xenopus laevis oocytes expressing GABAA receptors, modulation of GABA EC20 current; type: cell-based; parameters: host or cells: Xenopus laevis oocytes micro-injected with RNA transcripts of the subunits; conditions: Table 1; for Efficacy (GABA) %: % modulation of GABA EC20 = 100*(Fold increase-1); for Fold increase h-GABA-A α5β3γ2 oocyte: test compound at approx. 30 fold its Ki, GABA at EC20
Summary of the method: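 Modulation is reported as % of the GABA EC20 current, calculated as 100*(Fold increase−1) from the peak ratio between a second GABA response carrying compound (applied at roughly 30-fold Ki) and a preceding control response. Oocytes expressing human α5β3γ2 were clamped at −80 mV at room temperature, 3–5 days after injection.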

SMILES | Ki (h-GABA-A α5β3γ2 [1]) [nM] | Efficacy (GABA) % (h-GABA-A α5β3γ2 [2]) [%] | Fold increase h-GABA-A α5β3γ2 oocyte (h-GABA-A α5β3γ2 [2])
Cc1ccc(-c2noc(C)c2Cn2ncc(-c3ccc(N(C)C)nc3)cc2=O)cn1 [Example 116, 5-[6-(dimethylamino)-3-pyridyl]-2-((5-methyl-3-(6-methyl-3-pyridyl)isoxazol-4-yl)methyl)pyridazin-3-one] | 30.8 | 84 | 1.84
Cc1ccc(-c2noc(C)c2Cn2ncc(N3CC(O)(C(F)(F)F)C3)cc2=O)cn1 [Example 117, 5-(3-hydroxy-3-(trifluoromethyl)azetidin-1-yl)-2-((5-methyl-3-(6-methylpyridin-3-yl)isoxazol-4-yl)methyl)pyridazin-3(2H)-one] | 4.1 | 226 | 3.26
Cc1ccc(-c2noc(C)c2Cn2ncc(N3CCC(C)(O)C3)cc2=O)cn1 (stereo not drawn) [Example 118, 5-(3-hydroxy-3-methylpyrrolidin-1-yl)-2-((5-methyl-3-(6-methylpyridin-3-yl)isoxazol-4-yl)methyl)pyridazin-3(2H)-one] | 9.2 | 210 | 3.1
Cc1ccc(-c2noc(C)c2Cn2ncc(N3CCC(C)(O)CC3)cc2=O)cn1 [Example 119, 5-(4-hydroxy-4-methylpiperidin-1-yl)-2-((5-methyl-3-(6-methylpyridin-3-yl)isoxazol-4-yl)methyl)pyridazin-3(2H)-one] | 2.6 | 138 | 2.38
Cc1ccc(-c2noc(C)c2Cn2ncc(N3CC[C@H](C(C)(C)O)C3)cc2=O)cn1 [Example 120, 5-((3S)-3-(2-hydroxypropan-2-yl)pyrrolidin-1-yl)-2-((5-methyl-3-(6-methylpyridin-3-yl)-1,2-oxazol-4-yl)methyl)pyridazin-3-one] | 7.3 | 172 | 2.72
Cc1ccc(-c2noc(C)c2Cn2ncc(N3CC(Oc4ccc(F)cc4)C3)cc2=O)cn1 [Example 123, 5-[3-(4-fluorophenoxy)azetidin-1-yl]-2-[[5-methyl-3-(6-methyl-3-pyridyl)isoxazol-4-yl]methyl]pyridazin-3-one] | 18.6 | 152 | 2.52
Cc1ccc(-c2noc(C)c2Cn2ncc(N3CC(Oc4ccccn4)C3)cc2=O)cn1 [Example 124, 2-[[5-methyl-3-(6-methyl-3-pyridyl)isoxazol-4-yl]methyl]-5-[3-(2-pyridyloxy)azetidin-1-yl]pyridazin-3-one] | 12 | 148 | 2.48
Cc1ccc(-c2noc(C)c2Cn2ncc(N3CC(Oc4cccnc4)C3)cc2=O)cn1 [Example 126, 2-[[5-methyl-3-(6-methyl-3-pyridyl)isoxazol-4-yl]methyl]-5-[3-(3-pyridyloxy)azetidin-1-yl]pyridazin-3-one] | 9.4 | 134 | 2.34
Cc1ccc(-c2noc(C)c2Cn2ncc(N3CC(Oc4cccc(F)c4)C3)cc2=O)cn1 [Example 127, 5-[3-(3-fluorophenoxy)azetidin-1-yl]-2-[[5-methyl-3-(6-methyl-3-pyridyl)isoxazol-4-yl]methyl]pyridazin-3-one] | 7.3 | 153 | 2.53
Cc1ccc(-c2noc(C)c2Cn2ncc(N3CC(Oc4ccccc4F)C3)cc2=O)cn1 [Example 128, 5-[3-(2-fluorophenoxy)azetidin-1-yl]-2-[[5-methyl-3-(6-methyl-3-pyridyl)isoxazol-4-yl]methyl]pyridazin-3-one] | 11.1 | 120 | 2.2
Cc1ccc(-c2noc(C)c2Cn2ncc(N3CC(Oc4ccncc4)C3)cc2=O)cn1 [Example 129, 2-[[5-methyl-3-(6-methyl-3-pyridyl)isoxazol-4-yl]methyl]-5-[3-(4-pyridyloxy)azetidin-1-yl]pyridazin-3-one] | 4.5 | 198 | 2.98
Cc1ccc(-c2noc(C)c2Cn2ncc(N3CC(Oc4ccc(Cl)cn4)C3)cc2=O)cn1 [Example 130, 5-[3-[(5-chloro-2-pyridyl)oxy]azetidin-1-yl]-2-[[5-methyl-3-(6-methyl-3-pyridyl)isoxazol-4-yl]methyl]pyridazin-3-one] | 25.1 | 187 | 2.87
Cc1ccc(-c2noc(C)c2Cn2ncc(N3CC4(C[C@H](O)CO4)C3)cc2=O)cn1 [Example 131, 5-[(7S)-7-hydroxy-5-oxa-2-azaspiro[3.4]octan-2-yl]-2-[[5-methyl-3-(6-methyl-3-pyridyl)isoxazol-4-yl]methyl]pyridazin-3-one] | 17 | 105 | 2.05

The next lines start with the values.

Ki (h-GABA-A α5β3γ2 [1]) [nM] | Efficacy (GABA) % (h-GABA-A α5β3γ2 [2]) [%] | Fold increase h-GABA-A α5β3γ2 oocyte (h-GABA-A α5β3γ2 [2]) | SMILES
19.5 | 119 | 2.19 | Cc1ccc(-c2noc(C)c2Cn2ncc(N3CC4(C[C@@H](O)CO4)C3)cc2=O)cn1 [Example 132, 5-[(7R)-7-hydroxy-5-oxa-2-azaspiro[3.4]octan-2-yl]-2-[[5-methyl-3-(6-methyl-3-pyridyl)isoxazol-4-yl]methyl]pyridazin-3-one]
81.2 | 172 | 2.72 | CO[C@@H]1COC2(C1)CN(c1cnn(Cc3c(-c4ccc(C)nc4)noc3C)c(=O)c1)C2 [Example 133, 5-[(7S)-7-methoxy-5-oxa-2-azaspiro[3.4]octan-2-yl]-2-[[5-methyl-3-(6-methyl-3-pyridyl)isoxazol-4-yl]methyl]pyridazin-3-one]
16.6 | 111 | 2.11 | CO[C@H]1COC2(C1)CN(c1cnn(Cc3c(-c4ccc(C)nc4)noc3C)c(=O)c1)C2 [Example 134, 5-[(7R)-7-methoxy-5-oxa-2-azaspiro[3.4]octan-2-yl]-2-[[5-methyl-3-(6-methyl-3-pyridyl)isoxazol-4-yl]methyl]pyridazin-3-one]
28.1 | 119 | 2.19 | CCO[C@H]1COC2(C1)CN(c1cnn(Cc3c(-c4ccc(C)nc4)noc3C)c(=O)c1)C2 [Example 135, 5-[(7R)-7-ethoxy-5-oxa-2-azaspiro[3.4]octan-2-yl]-2-[[5-methyl-3-(6-methyl-3-pyridyl)isoxazol-4-yl]methyl]pyridazin-3-one]
5.2 | 96 | 1.96 | Cc1ccc(-c2noc(C)c2Cn2ncc(N3CC(OC4CC4)C3)cc2=O)cn1 [Example 136, 5-[3-(cyclopropoxy)azetidin-1-yl]-2-[[5-methyl-3-(6-methyl-3-pyridyl)isoxazol-4-yl]methyl]pyridazin-3-one]
22.9 | 110 | 2.1 | Cc1ccc(-c2noc(C)c2Cn2ncc(N(C)C3CN(C4CC4)C3)cc2=O)cn1 [Example 137, 5-((1-cyclopropylazetidin-3-yl)(methyl)amino)-2-((5-methyl-3-(6-methylpyridin-3-yl)isoxazol-4-yl)methyl)pyridazin-3(2H)-one]
